Values after ≈ are worked out from the molar mass of the structure shown.

The results in this text go back to patent publication US4463173A, “Cephalosporin derivatives” (ICI Pharma, priority 1979, dated 1984).

One data set concerns bacterial infection. The experiment in a line: mouse protection test (PD50). The class given is in vivo. Conditions: subcutaneous.
The subject of another data set is Strep. pyogenes. The experiment in a line: MIC by agar-dilution technique, Strep. pyogenes A1. The settings on record: Streptococcus pyogenes, No. Code A1, inoculum ~10^5 CFU. The data set is classed as cell-based. From the text:
(§1) As noted above the cephalosporin derivatives of the invention have antibacterial properties. Thus they are useful antibacterial agents, many of them having a broad spectrum of activity in vitro, against standard laboratory microorganisms, both Gram-negative and Gram-positive, which are used to screen for activity against pathogenic bacteria. The antibacterial spectrum and potency of a particular compound may be determined in a standard test system. […] The antibacterial activity is described in terms of the minimum inhibitory concentration (MIC) determined by agar-dilution technique with an inoculum size of ~10^5 CFU.

The next data set deals with Staph. aureus. The experiment in a line: MIC by agar-dilution technique, Staph. aureus A6. The data set is classed as cell-based. The settings on record: Staphylococcus aureus, No. Code A6, inoculum ~10^5 CFU.
Source text: as §1

For the next data set, the system named is E. coli. The experiment in a line: MIC by agar-dilution technique, E. coli A8. The class given is cell-based. The settings on record: Escherichia coli, No. Code A8, inoculum ~10^5 CFU.
Source text: as §1

A further data set concerns K. aerogenes. The experiment in a line: MIC by agar-dilution technique, K. aerogenes A10. The data set is classed as cell-based. The settings on record: Klebsiella aerogenes, No. Code A10, inoculum ~10^5 CFU.
Source text: as §1

A further data set deals with Ent. cloacae. The experiment in a line: MIC by agar-dilution technique, Ent. cloacae A13. The data set is classed as cell-based. The settings on record: Enterobacter cloacae, No. Code A13, inoculum ~10^5 CFU.
Source text: as §1

A further data set deals with Serratia marescens. The experiment in a line: MIC by agar-dilution technique, Serratia marescens A16. The data set is classed as cell-based. The settings on record: No. Code A16, inoculum ~10^5 CFU.
Source text: as §1

The test system of another data set is Proteus mirabilis. The experiment in a line: MIC by agar-dilution technique, Proteus mirabilis A18. Conditions: No. Code A18, inoculum ~10^5 CFU. The data set is classed as cell-based.
Source text: as §1

The next data set relates to Ps. aeruginosa. The experiment in a line: MIC by agar-dilution technique, Ps. aeruginosa A21. The data set is classed as cell-based. The settings on record: Pseudomonas aeruginosa, No. Code A21, inoculum ~10^5 CFU.
Source text: as §1

The nature of data set [1]: overt toxic symptoms or side effects in mice. The data set is classed as in vivo. The settings on record: single dose of 2 g./kg. As for the experimental part:
Similarly the compound 7-(imidazol-2-yl)amino-3-(2-methyl-1,3,4-thiadiazol-5-yl)thiomethylceph-3- em-4-carboxylic acid was administered both orally and subcutaneously to mice at a single dose of 2 g./kg.

With `Cn1nnnc1SCC1=C(C(=O)O)N2C(=O)[C@@H](Nc3ncc[nH]3)[C@H]2SC1` [7-(imidazol-2-yl)amino-3-(1H-1-methyltetrazol-5-yl)thiomethylceph-3-em-4-carboxylic acid], the “dose relative to minimum effective dose which protected 50% of the mice against bacterial infection (PD50)” value in the data set with bacterial infection (dose 100 mg./kg.) is “at least ten times”.
For `CC(=O)OCC1=C(C(=O)O)N2C(=O)[C@@H](Nc3nc4c(O)cccc4[nH]3)[C@H]2SC1` [3-acetoxymethyl-7-(4-hydroxybenzimidazol-2-yl)aminoceph-3-em-4-carboxylic acid], the “dose relative to minimum effective dose which protected 50% of the mice against bacterial infection (PD50)” value in the data set with bacterial infection (dose 200 mg./kg.) is on record as “at least ten times”.
A word on the MIC: it is the smallest concentration in the dilution series that meets the test's criterion for growth inhibition. A higher MIC goes with a less susceptible organism. With `CC(=O)OCC1=C(C(=O)O)N2C(=O)[C@@H](Nc3nc4ccccc4[nH]3)[C@H]2SC1`, the minimal inhibitory concentration (MIC) was 2 µg/mL (≈ 5.15 µM) in the data set on Strep. pyogenes; 2 µg/mL (≈ 5.15 µM) in the data set with Staph. aureus; 2 µg/mL (≈ 5.15 µM) with E. coli; 4 µg/mL (≈ 10.3 µM) against K. aerogenes; above 64 µg/mL against Ent. cloacae; 64 µg/mL (≈ 165 µM) with Serratia marescens. The MIC against Proteus mirabilis is 4 µg/mL (≈ 10.3 µM); against Ps. aeruginosa, above 64 µg/mL.
On to `CC(=O)OCC1=C(C(=O)O)N2C(=O)[C@@H](Nc3ncc[nH]3)[C@H]2SC1` [3-acetoxymethyl-7-imidazol-2-yl)aminoceph-3-em-4-carboxylic acid], for which the “dose relative to minimum effective dose which protected 50% of the mice against bacterial infection (PD50)” value in the data set on bacterial infection (dose 100 mg./kg.) is on record as “at least ten times”.
With `CC1=C(C(=O)O)N2C(=O)[C@@H](NC3=NCCN3)[C@H]2SC1`, the MIC in the data set on Strep. pyogenes was 256 µg/mL (≈ 907 µM); in the data set with Staph. aureus, above 256 µg/mL; against E. coli, 8 µg/mL (≈ 28.3 µM); against K. aerogenes, 8 µg/mL (≈ 28.3 µM); against Ent. cloacae, 8 µg/mL (≈ 28.3 µM); in the data set with Serratia marescens it was 32 µg/mL (≈ 113 µM). Besides, the MIC against Proteus mirabilis is 256 µg/mL (≈ 907 µM); against Ps. aeruginosa, above 256 µg/mL.
Regarding `CC(=O)OCC1=C(C(=O)O)N2C(=O)[C@@H](Nc3nc(-c4ccc(N(C)C)cc4)c[nH]3)[C@H]2SC1` [3-acetoxymethyl-7-[4-(4-dimethylamino)phenylimidazol-2-yl]aminoceph-3-em-4-carboxylic acid], the “dose relative to minimum effective dose which protected 50% of the mice against bacterial infection (PD50)” value in the data set with bacterial infection (dose 100 mg./kg.) is listed as “at least ten times”.
Take `Cc1nnc(SCC2=C(C(=O)O)N3C(=O)[C@@H](Nc4ncc[nH]4)[C@H]3SC2)s1` [7-(imidazol-2-yl)amino-3-(2-methyl-1,3,4-thiadiazol-5-yl)thiomethylceph-3-em-4-carboxylic acid]: the “overt toxic symptoms or side effects” value in [1] (oral) and in [1] (subcutaneous) was “no overt toxic symptoms or side effects were noted” each time.
On to `CC(=O)OCC1=C(C(=O)O)N2C(=O)[C@@H](Nc3ncc[nH]3)[C@H]2SC1` [drawing 38], for which the MIC against Strep. pyogenes was found to be 16 µg/mL (≈ 47.3 µM); in the data set with Staph. aureus, 32 µg/mL (≈ 94.6 µM); with E. coli, 0.12 µg/mL (≈ 0.355 µM); in the data set on K. aerogenes, 0.5 µg/mL (≈ 1.48 µM); in the data set with Ent. cloacae, 4 µg/mL (≈ 11.8 µM); in the data set on Serratia marescens it was 1 µg/mL (≈ 2.96 µM). Moreover, the MIC is 32 µg/mL (≈ 94.6 µM) against Proteus mirabilis and above 256 µg/mL in the data set with Ps. aeruginosa.
